What is called IC50 is the concentration that inhibits the measured activity by half.

Consider 4 molecules from patent US7402606B2, “Derivatives of 1-(oxoaminoacetyl) pentylcarbamate as cathepsin K inhibitors for the treatment of bone loss” (SmithKline Beecham Corporation, priority 2002, dated 2008).

The test has as its target T1, human cathepsin K (Homo sapiens, UniProt P43235).
T1 construct: The proform of cathepsin K was converted to mature cathepsin K by brief exposure to pH 4; made in house; host or cells: baculovirus; Trichoplusia ni High Five cells (virus raised in Sf-9)
T1 sequence (P43235 115-329): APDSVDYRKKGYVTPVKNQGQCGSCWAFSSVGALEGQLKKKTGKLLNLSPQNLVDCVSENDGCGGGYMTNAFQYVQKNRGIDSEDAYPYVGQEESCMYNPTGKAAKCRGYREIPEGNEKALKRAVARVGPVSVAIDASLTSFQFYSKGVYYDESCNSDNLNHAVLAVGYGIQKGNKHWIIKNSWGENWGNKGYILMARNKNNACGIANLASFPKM
The test is described as follows: Cathepsin K inhibition assay, human recombinant enzyme, fluorogenic substrate Cbz-Phe-Arg-AMC. Particulars: Table 1, human cathepsin K; read-out: h Cat K IC50. The format is biochemical. Summed up: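 Recombinant human cathepsin K (baculovirus/insect-cell proform, activated at pH 4 with 5 mM L-cysteine) assayed with 10 μM Cbz-Phe-Arg-AMC, 10% DMSO, 30 °C.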
Turning to `CCCC[C@H](NC(=O)O[C@@H]1CN(S(=O)(=O)c2ccc3c(c2)OCO3)CC1(C)C)C(=O)C(=O)N[C@H](C)c1ccccc1` [Example 79, (3S)-1-(1,3-Benzodioxol-5-ylsulfonyl)-4,4-dimethylpyrrolidinyl (1S)-1-(oxo{[(1R)-1-phenylethyl]amino}acetyl)pentylcarbamate], the IC50 lay within 10 to 100 nM. As for `CCCC[C@H](NC(=O)O[C@@H]1CN(S(=O)(=O)c2ccc3c(c2)OCCO3)CC1(C)C)C(=O)C(=O)N[C@H](C)c1ccccc1` [Example 80, (3S)-1-(2,3-Dihydro-1,4-benzodioxin-6-ylsulfonyl)-4,4-dimethylpyrrolidinyl (1S)-1-(oxo{[(1R)-1-phenylethyl]amino}acetyl)pentylcarbamate], the IC50 lay within 10 to 100 nM. For `CCCC[C@H](NC(=O)O[C@@H]1CN(c2nc3ccccc3s2)CC1(C)C)C(=O)C(=O)Nc1ccn[nH]1` [Example 81, (3S)-1-(1,3-Benzothiazol-2-yl)-4,4-dimethylpyrrolidinyl (1S)-1-[oxo(1H-pyrazol-5-ylamino)acetyl]pentylcarbamate], the IC50 lay within 0.1 to 1 nM.

Regarding `CCCCC(NC(=O)O[C@@H]1COCC1(C)C)C(=O)C(=O)N[C@H](C)c1ccccc1` (stereo partly drawn) [Example 83, (3S)-4,4-Dimethyltetrahydro-3-furanyl 1-(oxo{[(1R)-1-phenylethyl]amino}acetyl)pentylcarbamate], the IC50 was in the range of 10 to 100 nM.
